Reference: paper PMC4523340 (British Journal of Pharmacology, 2015)
Where a name gives a salt, the structure may show the parent alone.

What was measured:
5-HT7(b) receptor [1] = target: T1, 5-HT7(b) receptor (Homo sapiens, UniProt P34969); test: saturation radioligand binding, membranes; conditions: read-out: [^3H]-mesulergine / Kd; labelled compound; stable HEK293
5-HT7(b) receptor [2] = target: T1, 5-HT7(b) receptor
5-HT7(a) receptor = 5-HT7(a) receptor (Homo sapiens, UniProt P34969); test: saturation radioligand binding, membranes; conditions: read-out: [^3H]-mesulergine / Kd; labelled compound; stable HEK293
5-HT7(d) receptor = 5-HT7(d) receptor (Homo sapiens, UniProt P34969); test: saturation radioligand binding, membranes; conditions: read-out: [^3H]-mesulergine / Kd; labelled compound; stable HEK293
Sequence of 5-HT7(d) receptor (P34969 whole entry): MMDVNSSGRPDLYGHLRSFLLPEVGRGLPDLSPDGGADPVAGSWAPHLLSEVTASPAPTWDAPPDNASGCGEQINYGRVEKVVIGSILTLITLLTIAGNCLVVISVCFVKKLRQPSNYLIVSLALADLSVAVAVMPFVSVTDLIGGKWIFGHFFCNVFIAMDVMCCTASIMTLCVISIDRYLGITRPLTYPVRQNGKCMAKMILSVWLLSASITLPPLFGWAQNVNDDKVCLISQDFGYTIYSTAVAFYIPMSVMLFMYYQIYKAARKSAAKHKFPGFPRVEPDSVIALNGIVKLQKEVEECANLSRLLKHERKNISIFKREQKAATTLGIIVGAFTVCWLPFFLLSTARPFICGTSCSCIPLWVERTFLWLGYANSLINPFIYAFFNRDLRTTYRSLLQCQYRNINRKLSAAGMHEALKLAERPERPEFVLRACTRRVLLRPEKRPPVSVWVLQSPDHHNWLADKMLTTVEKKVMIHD

T1 sequence (P34969 1-432 limits assumed): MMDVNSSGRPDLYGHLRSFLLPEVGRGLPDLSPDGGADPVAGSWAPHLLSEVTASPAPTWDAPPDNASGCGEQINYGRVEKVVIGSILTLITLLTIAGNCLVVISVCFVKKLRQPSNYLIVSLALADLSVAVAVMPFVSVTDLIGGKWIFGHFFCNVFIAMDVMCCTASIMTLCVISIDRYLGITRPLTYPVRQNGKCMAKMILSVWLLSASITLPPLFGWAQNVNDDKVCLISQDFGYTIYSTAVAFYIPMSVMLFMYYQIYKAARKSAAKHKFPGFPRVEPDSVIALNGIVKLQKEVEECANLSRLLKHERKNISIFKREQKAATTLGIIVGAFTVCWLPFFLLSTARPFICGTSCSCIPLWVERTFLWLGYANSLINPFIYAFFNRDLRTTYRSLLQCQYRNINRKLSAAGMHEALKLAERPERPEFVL
Sequence of 5-HT7(a) receptor (P34969 1-445 isoform P34969-2): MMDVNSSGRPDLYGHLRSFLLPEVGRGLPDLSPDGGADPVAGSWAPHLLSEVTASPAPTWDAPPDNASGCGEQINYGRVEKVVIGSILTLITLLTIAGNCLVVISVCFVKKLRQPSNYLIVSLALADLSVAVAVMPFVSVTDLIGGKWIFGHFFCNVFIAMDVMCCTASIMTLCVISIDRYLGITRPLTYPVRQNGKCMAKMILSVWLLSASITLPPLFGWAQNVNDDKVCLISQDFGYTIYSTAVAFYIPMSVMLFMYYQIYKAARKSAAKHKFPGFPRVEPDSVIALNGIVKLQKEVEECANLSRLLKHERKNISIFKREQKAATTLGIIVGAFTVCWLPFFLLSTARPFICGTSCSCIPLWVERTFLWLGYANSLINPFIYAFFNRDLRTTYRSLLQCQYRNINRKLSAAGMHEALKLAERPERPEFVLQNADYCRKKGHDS

SMILES: CN1C[C@@H](NS(=O)(=O)N(C)C)C[C@@H]2c3cccc4c3c(cn4C)C[C@H]21 [mesulergine, N′-[(8a)-1,6-dimethylergolin-8-yl]-N,N-dimethylsulfamide hydrochloride]
- Kd (5-HT7(b) receptor [1]): 6.2 ± 0.7 nM
- pEC50 (5-HT7(b) receptor [2]): 8.7 ± 0.1
- Kd (5-HT7(a) receptor): 9.2 ± 1.6 nM
- Kd (5-HT7(d) receptor): 9.6 ± 1.2 nM
